This note sets out measurements from patent US6875884B1, “Urea derivatives as inhibitors for CCR-3 receptor” (Kirin Beer Kabushiki Kaisha, priority 1999, dated 2005).

In test [1] the test system is collagen-induced arthritis. In words: Type II collagen-induced arthritis in mice, clinical score. To be noted: male DBA/1 mice, 20 mg/kg per day subcutaneously starting at 2nd immunization, versus control vehicle. The test is classed as in vivo.
Another test addresses T1, CCR-3 (Homo sapiens, UniProt P51677).
T1 sequence (P51677 1-355): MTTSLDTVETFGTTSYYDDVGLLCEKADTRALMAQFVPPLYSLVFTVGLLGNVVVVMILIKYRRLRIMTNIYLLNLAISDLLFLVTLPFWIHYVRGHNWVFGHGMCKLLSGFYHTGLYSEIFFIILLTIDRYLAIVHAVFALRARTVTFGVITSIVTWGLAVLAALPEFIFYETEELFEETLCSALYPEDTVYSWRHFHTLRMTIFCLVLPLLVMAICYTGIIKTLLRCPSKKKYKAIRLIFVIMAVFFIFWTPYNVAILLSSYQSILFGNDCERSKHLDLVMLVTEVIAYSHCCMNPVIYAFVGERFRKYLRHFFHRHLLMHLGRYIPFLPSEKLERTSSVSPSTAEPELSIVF
In words: Inhibition of eotaxin-induced intracellular calcium mobilization in CCR-3 transfectant cells (CCR3/HEK293). Format: cell-based. Details: expressed in transfected cells. To be noted: compound 6.25 μg/ml, eotaxin 10 nM. The procedure:
Compounds 93-162 used in this assay were synthesized by using the method described in Example 6, and Compounds 168-170 were synthesized by using the method described in Example 6 except for the use of isothiocyanates instead of isocyanates in step 6.
CCR-3 transfectant cells (CCR3/HEK293) were isolated and resuspended with assay buffer (20 mM HEPES, 125 mM NaCl, 5 mM KCl, 0.5 mM glucose, 1 mM CaCl2, 1 mM MgCl2, 0.1% BSA). After washing CCR3/HEK293 cells with assay buffer, cells were loaded with Fura-2/AM in assay buffer for 1 hour at room temperature. Cells were washed and resuspended with assay buffer at 5×10^6 cells/ml in assay buffer, and placed in a tissue culture plate (Falcon, no. 3296). Test compounds dissolved in DMSO were added to the wells, followed by eotaxin (10 nM at final concentration). Cells were excited at 340 nm and 380 nm in a fluorimeter (ARGUS50,FDSS2000, Hamamatsu Photonics) and the relative ratio of the fluorescence emitted at 510 nm was recorded. For a control, DMSO without a test compound was added. Intracellular calcium mobilization was calculated as described in Krogel C. et al., FEBS Let. (1989) 243, 41-46.

Test [2] concerns eosinophil infiltration to BALF. In words: Eosinophil infiltration to bronchoalveolar lavage fluid (BALF) in OVA-immunized mice. Format: in vivo. To be noted: OVA-immunized male BALB/c mice, intraperitoneally for 9 days, FIG. 2C. The procedure:
(§1) Male BALB/c mice were immunized by an intraperitoneal injection of 10 μg OVA adsorbed to 1 mg aluminum hydroxide gel (alum). A booster injection of the same dose of alum-adsorbed OVA was given 5 days later. Unimmunized control mice received saline.
(§2) Twelve days after primary immunization, both the immunized and unimmunized mice were exposed to aerosolized antigen. Aerosolization of OVA was performed using a nose-only aerosol chamber adapted for mice. Animals were exposed for 10 minutes to 5 mg/ml OVA aerosolized by an ultrasonic nebulizer (NE-U12, Omron, Tokyo, Japan) driven by a vacuum pump. The antigen bronchoprovocation was repeated on day 16 and day 20 under the same conditions. Compound No. 298 (CPD No. 298) was dissolved in saline containing 2% DMSO and 2% Cremophore and administered intraperitoneally for 9 days, starting on the first day of antigen inhalation.
Immediately after the measurement of airway reactivity to acethycholine, BALF was collected by lavaging whole-lung three times with 0.7-ml aliquots of physiological saline containing 0.1% BSA via the tracheal cannula while gently massaging the thorax. The BALF recovered from one mouse was pooled, centrifuged, and the cells were resuspended in 100 μl saline containing 0.1% BSA. Cell numbers were determined using a hemocytometer and 2×10^4 cells were cytecetrifuged onto a glass slide. […]

Test [3] relates to bronchoconstriction provoked by acetylcholine. In words: Airway hyperreactivity: bronchoconstriction provoked by acetylcholine (murine asthma model). Format: in vivo. To be noted: OVA-immunized male BALB/c mice, intraperitoneally for 9 days, FIG. 2A. The procedure:
as §1, §2
Twenty-four hours after the final aerosol exposure, bronchoconstriction was measured by the overflow method of Konzett and Rōssler. […] Bronchoconstriction was recorded on a flatbed recorder (Model FBR-252A, TOA Electronics Ltd., Tokyo, Japan). […]

For `O=C(O)CCCN(CCCNC(=O)Nc1ccc(Br)cc1)C1CCCc2ccccc21` (stereo not shown) [Compound 60, 4-[[3-(4-Bromophenylureido)propyl](1,2,3,4-tetrahydro-1-naphthyl)amino]butanoic acid], the “clinical score of collagen-induced arthritis” value in test [1] was “marked prevention in clinical score”. With `COc1ccc(NC(=S)NCCCN(CCCC(=O)O)C2CCCc3ccccc32)cc1` (stereo not shown) [Compound 168], on CCR-3, the “Ca^2+ mobilization 6.25 μg/ml (inhibition %)” value was found to be 23%. As for `O=C(O)CCCN(CCCNC(=S)Nc1ccc(OCc2ccccc2)cc1)C1CCCc2ccccc21` (stereo not shown) [Compound 169], the “Ca^2+ mobilization 6.25 μg/ml (inhibition %)” value at CCR-3 was 48%. Still for that read-out and setting: the result for `O=C(O)CCCN(CCCNC(=S)Nc1ccc(OC(F)(F)F)cc1)C1CCCc2ccccc21` (stereo not shown) [Compound 170] reads 45%. Take `CC[N+](CCCNC(=O)Nc1ccccc1)(CCc1ccc(Cl)cc1)Cc1ccc(Cl)cc1.[I-]` (stereo not shown) [Compound 298, [3-(Phenylureido)propyl][2(4-chlorophenyl)ethyl](4 chlorobenzyl)ethylammonium iodide]: the “eosinophil infiltration to bronchoalveolar lavage fluid (BALF)” value in test [2] is on record as “significantly suppressed eosinophil infiltration”. Further, the “clinical score of collagen-induced arthritis” value in test [1] was “marked prevention in clinical score”. Further, the “bronchoconstriction provoked by acetylcholine” value in test [3] is “Inhibition of bronchoconstriction”.
